ChEMBL document CHEMBL5465560, “Selectivity Literature for EUbOPEN Chemogenomic Library” (2024)

Columns and labels:
[1] = molecular target: Serine/threonine-protein kinase Chk2 (Homo sapiens) (UniProt O96017); assay: Selectivity interaction (Ambit KINOMEscan and KiNATiv profiling in Jurkat cells) EUB0000090b CHEK2; type: cell-based; conditions: at 1 µM
[2] = molecular target: T1, MAP kinase-activated protein kinase 5 (Homo sapiens) (UniProt Q8IW41); assay: Selectivity interaction (Millipore kinase profiler) EUB0000124b MAPKAPK5; conditions: at 10 µM
T1 sequence (whole entry): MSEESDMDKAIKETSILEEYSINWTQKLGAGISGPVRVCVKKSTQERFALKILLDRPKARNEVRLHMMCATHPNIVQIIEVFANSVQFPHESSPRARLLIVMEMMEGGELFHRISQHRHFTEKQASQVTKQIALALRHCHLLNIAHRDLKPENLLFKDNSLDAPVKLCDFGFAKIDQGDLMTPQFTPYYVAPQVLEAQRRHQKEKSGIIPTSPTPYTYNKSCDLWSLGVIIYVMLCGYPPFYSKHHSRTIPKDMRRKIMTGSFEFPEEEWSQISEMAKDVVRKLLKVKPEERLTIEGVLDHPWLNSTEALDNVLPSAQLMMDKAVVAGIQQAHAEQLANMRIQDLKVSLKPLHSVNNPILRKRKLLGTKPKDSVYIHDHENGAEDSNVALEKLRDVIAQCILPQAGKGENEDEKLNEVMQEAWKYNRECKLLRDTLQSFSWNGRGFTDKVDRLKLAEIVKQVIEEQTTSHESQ

[3] = molecular target: Phosphatidylinositol 4-phosphate 3-kinase C2 domain-containing subunit beta (Homo sapiens) (UniProt O00750); assay: Selectivity interaction (KinomeScan (DiscoverX)) EUB0000607a PIK3C2B; conditions: at 10 µM
Ephrin type-A receptor 4 = Ephrin type-A receptor 4 (Homo sapiens, UniProt P54764); assay: Selectivity interaction (KinomeScan (DiscoverX)) EUB0001619a EPHA4; conditions: at 1 µM
[4] = molecular target: T2, Peripheral plasma membrane protein CASK (Homo sapiens) (UniProt O14936); assay: Selectivity interaction (KinomeScan (DiscoverX)) EUB0000595a CASK; conditions: at 10 µM
T2 sequence (whole entry): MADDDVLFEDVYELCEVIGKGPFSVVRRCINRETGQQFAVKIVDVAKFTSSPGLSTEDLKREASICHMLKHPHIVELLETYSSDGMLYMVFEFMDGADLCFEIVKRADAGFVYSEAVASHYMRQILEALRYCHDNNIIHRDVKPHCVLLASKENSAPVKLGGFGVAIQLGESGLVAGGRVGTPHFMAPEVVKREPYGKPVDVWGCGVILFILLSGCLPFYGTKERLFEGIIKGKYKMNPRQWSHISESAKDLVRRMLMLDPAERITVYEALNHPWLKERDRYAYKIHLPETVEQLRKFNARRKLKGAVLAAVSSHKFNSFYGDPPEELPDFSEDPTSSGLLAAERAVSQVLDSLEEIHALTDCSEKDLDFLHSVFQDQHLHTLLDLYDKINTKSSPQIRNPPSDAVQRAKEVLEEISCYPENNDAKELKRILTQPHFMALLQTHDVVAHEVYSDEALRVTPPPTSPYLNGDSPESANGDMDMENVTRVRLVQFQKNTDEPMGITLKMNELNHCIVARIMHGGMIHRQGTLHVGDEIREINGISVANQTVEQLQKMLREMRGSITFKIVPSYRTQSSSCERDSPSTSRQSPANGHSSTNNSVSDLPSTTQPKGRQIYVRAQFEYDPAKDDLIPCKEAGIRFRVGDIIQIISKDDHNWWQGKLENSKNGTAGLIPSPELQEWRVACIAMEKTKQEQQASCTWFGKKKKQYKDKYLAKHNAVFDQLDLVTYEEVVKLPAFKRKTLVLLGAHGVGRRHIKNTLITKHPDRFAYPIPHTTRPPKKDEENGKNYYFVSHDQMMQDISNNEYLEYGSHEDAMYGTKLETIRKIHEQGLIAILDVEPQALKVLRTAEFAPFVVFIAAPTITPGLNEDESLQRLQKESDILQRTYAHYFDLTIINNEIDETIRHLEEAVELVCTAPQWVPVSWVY

[5] = molecular target: Ribosomal protein S6 kinase alpha-2 (Homo sapiens) (UniProt Q15349); assay: Selectivity interaction (Upstate Kinase Profiler service (Millipore)) EUB0000056c RPS6KA2; conditions: at 1 µM
[6] = molecular target: DNA (cytosine-5)-methyltransferase 3B (Homo sapiens) (UniProt Q9UBC3); conditions: at 10 µM
[7] = molecular target: Serine/threonine-protein kinase PAK 2 (Homo sapiens) (UniProt Q13177); assay: Selectivity interaction (Kinase panel (KiNativ target engagement assay in Jurkat cells)) EUB0001635a PAK2; type: cell-based; conditions: Selectivity number of off-targets 0.0, Selectivity number of targets 233.0, Source Knowledge https://www.sciencedirect.com/science/article/pii/S2451945619300674?via%3Dihub, at 1 µM
[8] = molecular target: T3, Mitogen-activated protein kinase 13 (Homo sapiens) (UniProt O15264); conditions: at 10 µM
T3 sequence (whole entry): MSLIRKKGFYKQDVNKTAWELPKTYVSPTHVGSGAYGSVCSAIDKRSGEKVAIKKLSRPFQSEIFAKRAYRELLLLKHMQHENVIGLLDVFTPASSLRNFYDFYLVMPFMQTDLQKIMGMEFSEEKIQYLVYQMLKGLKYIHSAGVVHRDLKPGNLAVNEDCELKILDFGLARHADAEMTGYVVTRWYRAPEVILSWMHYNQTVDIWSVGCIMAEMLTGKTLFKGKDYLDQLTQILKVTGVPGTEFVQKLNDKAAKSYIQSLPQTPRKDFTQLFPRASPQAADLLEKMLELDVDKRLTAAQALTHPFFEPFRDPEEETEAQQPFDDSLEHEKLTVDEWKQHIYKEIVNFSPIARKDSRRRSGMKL

[9] = molecular target: Cyclin-dependent kinase 2 (Homo sapiens, UniProt P24941); assay: Selectivity interaction (KinomeScan (DiscoverX)) EUB0000229b CDK2; conditions: at 10 µM
[10] = molecular target: Phosphatidylinositol 4-phosphate 5-kinase type-1 alpha (Homo sapiens) (UniProt Q99755); assay: Selectivity interaction (KinomeScan (DiscoverX)) EUB0001049a PIP5K1A; conditions: at 1 µM
[11] = molecular target: SRSF protein kinase 3 (Homo sapiens) (UniProt Q9UPE1); assay: Selectivity interaction (KinomeScan (DiscoverX)) EUB0000666a SRPK3; conditions: at 10 µM
[12] = molecular target: Dual specificity tyrosine-phosphorylation-regulated kinase 1B (Homo sapiens, UniProt Q9Y463); assay: Selectivity interaction (Kinase panel (Z-LYTE Assay)) EUB0001632a DYRK1B; conditions: at 10 µM
Dual specificity tyrosine-phosphorylation-regulated kinase 1B, sequence (Q9Y463 whole entry, looked up): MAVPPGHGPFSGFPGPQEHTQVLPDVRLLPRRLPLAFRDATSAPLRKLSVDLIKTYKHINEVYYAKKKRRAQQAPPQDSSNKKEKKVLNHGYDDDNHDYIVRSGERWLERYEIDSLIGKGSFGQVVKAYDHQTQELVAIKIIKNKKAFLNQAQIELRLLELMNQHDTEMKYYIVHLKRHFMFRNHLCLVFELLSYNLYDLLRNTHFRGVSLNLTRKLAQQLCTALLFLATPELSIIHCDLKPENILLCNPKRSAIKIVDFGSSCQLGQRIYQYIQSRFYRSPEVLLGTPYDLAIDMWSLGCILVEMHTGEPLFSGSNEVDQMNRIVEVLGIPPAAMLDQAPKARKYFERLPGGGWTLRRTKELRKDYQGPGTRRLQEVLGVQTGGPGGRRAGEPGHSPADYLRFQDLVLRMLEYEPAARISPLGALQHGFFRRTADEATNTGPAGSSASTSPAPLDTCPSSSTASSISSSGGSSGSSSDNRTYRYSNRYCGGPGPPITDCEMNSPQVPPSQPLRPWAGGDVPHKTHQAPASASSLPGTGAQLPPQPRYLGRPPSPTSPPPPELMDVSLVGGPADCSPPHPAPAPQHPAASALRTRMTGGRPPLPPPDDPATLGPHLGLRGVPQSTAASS

SRSF protein kinase 3 (Homo sapiens), sequence (Q9UPE1 whole entry): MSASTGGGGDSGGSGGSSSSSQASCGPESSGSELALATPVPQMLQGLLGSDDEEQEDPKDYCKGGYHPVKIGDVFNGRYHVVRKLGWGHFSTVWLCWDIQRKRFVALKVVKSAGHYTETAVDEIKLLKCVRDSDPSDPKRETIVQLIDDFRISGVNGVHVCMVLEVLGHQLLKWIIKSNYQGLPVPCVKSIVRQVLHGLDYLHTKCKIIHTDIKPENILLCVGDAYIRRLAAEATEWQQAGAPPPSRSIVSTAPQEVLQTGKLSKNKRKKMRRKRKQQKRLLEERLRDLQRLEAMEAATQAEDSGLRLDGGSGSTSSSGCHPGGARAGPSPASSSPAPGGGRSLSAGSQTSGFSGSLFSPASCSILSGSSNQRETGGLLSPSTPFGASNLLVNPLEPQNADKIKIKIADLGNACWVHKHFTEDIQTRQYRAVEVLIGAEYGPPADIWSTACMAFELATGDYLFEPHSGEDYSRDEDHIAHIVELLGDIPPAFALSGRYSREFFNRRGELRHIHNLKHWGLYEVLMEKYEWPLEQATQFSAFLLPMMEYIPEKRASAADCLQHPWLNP
Serine/threonine-protein kinase PAK 2 (Homo sapiens), sequence (Q13177 whole entry): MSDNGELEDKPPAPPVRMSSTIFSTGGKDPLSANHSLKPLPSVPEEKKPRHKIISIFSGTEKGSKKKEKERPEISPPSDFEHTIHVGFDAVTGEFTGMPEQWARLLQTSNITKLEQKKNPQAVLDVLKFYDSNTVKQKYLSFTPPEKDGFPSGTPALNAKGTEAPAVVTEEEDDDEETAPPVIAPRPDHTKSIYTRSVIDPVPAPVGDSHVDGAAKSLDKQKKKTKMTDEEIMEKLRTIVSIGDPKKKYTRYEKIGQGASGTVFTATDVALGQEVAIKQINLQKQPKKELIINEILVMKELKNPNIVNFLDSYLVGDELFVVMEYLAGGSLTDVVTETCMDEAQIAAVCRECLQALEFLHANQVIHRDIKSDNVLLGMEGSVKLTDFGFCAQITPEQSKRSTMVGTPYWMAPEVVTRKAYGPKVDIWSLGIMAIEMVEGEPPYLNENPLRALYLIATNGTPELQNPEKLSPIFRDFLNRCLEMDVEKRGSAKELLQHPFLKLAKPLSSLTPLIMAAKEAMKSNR
Phosphatidylinositol 4-phosphate 5-kinase type-1 alpha (Homo sapiens), sequence (Q99755 whole entry): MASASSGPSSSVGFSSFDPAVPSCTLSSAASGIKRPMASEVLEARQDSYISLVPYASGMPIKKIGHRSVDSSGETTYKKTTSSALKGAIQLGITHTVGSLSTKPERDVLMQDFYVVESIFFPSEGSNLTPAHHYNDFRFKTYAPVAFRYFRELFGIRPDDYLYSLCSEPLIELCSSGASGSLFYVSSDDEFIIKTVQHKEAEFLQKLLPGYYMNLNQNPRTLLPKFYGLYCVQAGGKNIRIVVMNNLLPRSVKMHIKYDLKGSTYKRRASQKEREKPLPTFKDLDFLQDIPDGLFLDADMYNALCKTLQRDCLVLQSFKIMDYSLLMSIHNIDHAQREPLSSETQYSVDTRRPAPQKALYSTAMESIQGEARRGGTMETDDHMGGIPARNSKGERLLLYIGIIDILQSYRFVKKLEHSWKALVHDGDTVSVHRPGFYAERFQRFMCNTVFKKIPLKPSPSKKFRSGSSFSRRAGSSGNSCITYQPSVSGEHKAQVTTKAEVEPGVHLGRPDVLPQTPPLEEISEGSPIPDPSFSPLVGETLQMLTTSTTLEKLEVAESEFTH
Serine/threonine-protein kinase Chk2 (Homo sapiens), sequence (O96017 whole entry): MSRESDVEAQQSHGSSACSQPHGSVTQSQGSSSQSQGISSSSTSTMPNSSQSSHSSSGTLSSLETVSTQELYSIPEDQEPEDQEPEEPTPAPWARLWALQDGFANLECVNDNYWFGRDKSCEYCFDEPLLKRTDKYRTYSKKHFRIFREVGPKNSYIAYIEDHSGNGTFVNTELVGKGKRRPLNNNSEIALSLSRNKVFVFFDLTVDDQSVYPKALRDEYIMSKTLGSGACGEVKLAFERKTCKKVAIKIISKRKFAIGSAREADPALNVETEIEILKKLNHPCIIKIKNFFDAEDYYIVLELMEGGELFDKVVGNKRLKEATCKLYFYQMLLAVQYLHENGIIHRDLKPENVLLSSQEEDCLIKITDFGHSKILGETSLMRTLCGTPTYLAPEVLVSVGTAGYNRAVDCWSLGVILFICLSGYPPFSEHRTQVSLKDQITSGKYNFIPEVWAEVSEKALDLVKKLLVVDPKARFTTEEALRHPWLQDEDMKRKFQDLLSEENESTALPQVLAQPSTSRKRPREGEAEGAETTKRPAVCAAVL
Ribosomal protein S6 kinase alpha-2 (Homo sapiens), sequence (Q15349 whole entry): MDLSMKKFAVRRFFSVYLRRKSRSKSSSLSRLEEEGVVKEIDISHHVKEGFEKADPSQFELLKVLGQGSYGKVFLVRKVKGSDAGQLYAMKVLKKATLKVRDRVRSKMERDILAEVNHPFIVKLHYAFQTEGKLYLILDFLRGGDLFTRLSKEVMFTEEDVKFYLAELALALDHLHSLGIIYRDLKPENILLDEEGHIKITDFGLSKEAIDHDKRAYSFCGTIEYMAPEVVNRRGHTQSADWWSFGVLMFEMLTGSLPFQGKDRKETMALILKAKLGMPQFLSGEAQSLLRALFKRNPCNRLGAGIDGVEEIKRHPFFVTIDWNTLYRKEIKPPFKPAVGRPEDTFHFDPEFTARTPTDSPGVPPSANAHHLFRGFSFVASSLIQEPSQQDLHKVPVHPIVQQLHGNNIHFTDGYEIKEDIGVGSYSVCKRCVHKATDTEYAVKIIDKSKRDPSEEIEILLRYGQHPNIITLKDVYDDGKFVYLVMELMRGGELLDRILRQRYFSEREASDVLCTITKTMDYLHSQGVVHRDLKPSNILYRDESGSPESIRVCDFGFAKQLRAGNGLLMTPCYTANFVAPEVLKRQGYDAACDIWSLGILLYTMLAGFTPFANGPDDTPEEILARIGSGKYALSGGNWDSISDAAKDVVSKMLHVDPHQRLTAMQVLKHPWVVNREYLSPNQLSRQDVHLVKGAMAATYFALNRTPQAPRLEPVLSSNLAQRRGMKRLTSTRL
Ephrin type-A receptor 4, sequence (P54764 whole entry): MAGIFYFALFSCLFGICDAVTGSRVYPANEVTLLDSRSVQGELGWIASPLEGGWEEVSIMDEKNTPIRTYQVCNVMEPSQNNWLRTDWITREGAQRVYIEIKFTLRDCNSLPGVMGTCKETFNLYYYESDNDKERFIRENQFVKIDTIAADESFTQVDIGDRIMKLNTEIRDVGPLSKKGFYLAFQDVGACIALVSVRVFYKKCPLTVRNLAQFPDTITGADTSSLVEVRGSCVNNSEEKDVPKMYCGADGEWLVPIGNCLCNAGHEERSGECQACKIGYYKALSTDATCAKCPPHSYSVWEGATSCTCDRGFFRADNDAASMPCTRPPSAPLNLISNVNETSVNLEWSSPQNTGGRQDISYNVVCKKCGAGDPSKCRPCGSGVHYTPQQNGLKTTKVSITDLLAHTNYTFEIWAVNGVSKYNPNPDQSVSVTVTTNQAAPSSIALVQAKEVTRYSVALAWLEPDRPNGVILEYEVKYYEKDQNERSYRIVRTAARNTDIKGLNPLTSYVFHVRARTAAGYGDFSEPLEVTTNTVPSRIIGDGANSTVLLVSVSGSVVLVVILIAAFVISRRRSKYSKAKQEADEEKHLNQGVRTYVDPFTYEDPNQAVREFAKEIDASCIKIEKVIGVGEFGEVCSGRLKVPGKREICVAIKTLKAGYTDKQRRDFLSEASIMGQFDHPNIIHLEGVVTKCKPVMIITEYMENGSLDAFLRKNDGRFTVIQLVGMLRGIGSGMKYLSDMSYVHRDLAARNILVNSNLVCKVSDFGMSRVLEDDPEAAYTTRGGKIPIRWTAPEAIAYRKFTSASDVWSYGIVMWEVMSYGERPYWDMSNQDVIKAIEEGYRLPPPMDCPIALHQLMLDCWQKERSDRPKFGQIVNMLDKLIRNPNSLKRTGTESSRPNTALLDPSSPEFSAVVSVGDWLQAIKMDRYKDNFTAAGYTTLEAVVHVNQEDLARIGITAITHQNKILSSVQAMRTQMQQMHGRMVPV

CN(C)C/C=C/C(=O)Nc1ccc(C(=O)N2CCCC(Nc3ncc(Cl)c(-c4c[nH]c5ccccc45)n3)C2)cc1 (stereo not drawn)
% of control [1]: 81%

CC(=O)Nc1cccc(-n2c(=O)n(C3CC3)c(=O)c3c(Nc4ccc(I)cc4F)n(C)c(=O)c(C)c32)c1
% of control [2]: 91%

CNC(=O)Nc1ccc(-c2nc(N3CC4CCC(C3)O4)c3cnn(C4CCC5(CC4)OCCO5)c3n2)cc1
% of control [3]: 25%

N#Cc1cccc(-c2c[nH]c3ncnc(N4CCOCC4)c23)c1
% of control (Ephrin type-A receptor 4): 100%

COCC(=O)NC/C=C/c1ccc2ncnc(Nc3ccc(Oc4ccc(C)nc4)c(C)c3)c2c1 [CP-724714]
% of control [4]: 100%

Cc1ccc(-c2ccc3c(ccc4sc5c(c43)NC[C@@H](C)NC5=O)n2)cn1
% of inhibition [5]: 49%

CNCCN1CCC(c2cc(CN(C)C(=O)c3cccc(Oc4ccccc4)c3)ccn2)CC1
% activity [6]: > 90%

C=CC(=O)Nc1ccc(C(=O)Nc2[nH]nc3c2CN(C(=O)N[C@H](CN(C)C)c2ccccc2)C3(C)C)cc1
% of engagement [7]: 10.9%

Cc1cc([C@@H](C)Nc2ccccc2C(=O)O)c2nc(N3CCOCC3)cc(=O)n2c1 [AZD-6482]
% of control [8]: 87%

COc1cc(N(C)c2ccnc3ccc(C(F)(F)F)cc23)cc(OC)c1OC
% binding [9]: 100%

COc1cc(Nc2nc(C)cc(-c3cnn4nc(OC)ccc34)n2)cc(C(F)(F)F)c1
% of control [10]: 81%

O=C(NOC[C@H](O)CO)c1ccc(F)c(F)c1Nc1ccc(I)cc1F
% of control [11]: 100%

Cn1cc(-n2cnc3c(NCc4nc5cc(Cl)c(Cl)cc5[nH]4)nc(N4CCOCC4)nc32)cn1
% of control [12]: 3.54%
